Test results reported in patent publication US7226949B2, “Compounds of use in the treatment of epilepsy, seizure, and electroconvulsive disorders” (University of Kentucky, priority 2002, dated 2007).

What was measured:
[1] = tested on: rats; experiment: Minimal neurotoxicity in rats, positional sense and gait and stance tests; assay type: in vivo; conditions: 250 mg/kg
From the text: If the rat experiences neurological toxicity, it will not be able to quickly lift its leg quickly back to a normal position.
In the gait and stance test, neurotoxicity is indicated by a circular or zigzag gait after administration of the test compound. In addition, ataxia, abnormal spread of the legs, abnormal posture, tremor hyperactivity, lack of exploratory behavior, somnolence, stupor, or catalepsy can indicate neurotoxicity.

[2] = tested on: mice; experiment: Minimal neurotoxicity in mice, rotorod test; conditions: 100 mg/kg
Description: In mice, the test compound is administered at doses of 30, and 100 mg/kg prior to evaluation in the toxicity screens. The mice are tested at 0.5 hours and 4 hours after intraperitoneal administration of the test compound.
Toxicity in mice weighing between 18 and 25.5 g is assessed using the standardized rotorod test [9]. For each compound tested, a minimum of 18 animals are evaluated for neurotoxicity. Control mice can maintain their equilibrium for an extended period of time when they are placed on a 6-rpm rotation rod. Neurologically impaired animals cannot maintain equilibrium for one minute in each of three successive trials.

[3] = tested on: focal seizures in hippocampal kindled rats; experiment: Hippocampal kindling model; assay type: in vivo, Sprague-Dawley rats; conditions: hippocampal kindling model; not as effective as 4,4′-thiodianiline
From the text: Hippocampal Kindling Model
The hippocampal kindling model is an experimental seizure model used to simulate focal seizures. This model evaluates the capacity of a compound to affect both the expression and acquisition of focal seizures. In addition, kindled seizures provide a methodology for studying complex brain networks that may contribute to the spread and generalizations of seizures from a focus. The hippocampal kindling model has the advantage of being one of the only kindling models that can evaluate the temporal effects of an agent in a single animal. For this assessment, bipolar electrodes are surgically implanted in the ventral hippocampus of adult male Sprague-Dawley rats (275-300 g) under ketamine-xylazine anesthesia. Following a one-week recovery period, stage five behavioral seizures are induced by stimulating the rat 12 times per day with 50 Hz, 10 s train of 1 ms biphasic 200 μA pulses delivered every 30 min for six hours on alternating days. After five stimulus days, the animal has had 60 stimulations. A drug free control period with supramaximal stimulations is used to verify the stability of a stage five generalized seizure before the anticonvulsant activity of a drug is measured.
This screen is used to measure the capacity of the drug to prevent the expression of focal seizures. […] The animal is exposed to an initial stimulation of 20 μA; the stimulation is increased in 10 μA increments every one-two minutes until an afterdischarge is recorded. After the stability of the stage five seizure is established, the drug candidate is administered to the rats via intraperitoneal injection 15 minutes after the last control stimulation. Starting with the first dose, the anticonvulsant activity of the test agent is measured every thirty minutes for four hours. Following each stimulation, Racine seizure scores and afterdischarge durations are compared to control values to quantify the anti-convulsant activity of the agent. The Racine seizure scores vary from stage 1 to 5. The stages are characterized according to the following criteria: Stage 1—mouth and facial clonus, Stage 2—stage 1 and head nodding, Stage 3—stage 2 and forelimb clonus, Stage 4—stage 3 and rearing, Stage 5—stage 4 and repeated rearing and falling. Since a single animal is used, each rat serves as its own control.
4,4′-Thiodianiline was used in the rat hippocampal kindled rats to screen to measure its anticonvulsant potential. Doses of 12.5, 25, 50 and 100 mg/kg were evaluated at a minimum of seven time points (n=7 for each dose and each time point). […] After oral administration of the test compound stimulation, the Racine seizure scores and afterdischarge durations were measured and are shown below. The Racine seizure scores dropped from between a stage 4 and stage 5 seizure for control measurements to between a stage 1 and stage 2 seizure after treatment with 4,4′-thiodianiline.

[4] = tested on: MES-induced seizure; experiment: Maximal Electroshock Seizure (MES) test in rats, oral administration; assay type: in vivo; conditions: for Percentage of rats in which the test compound prevented MES-induced seizure: 30 mg/kg oral
From the text: (§1) The Maximal Electroshock Seizure (MES) or Maximal Seizure Pattern Test
(§2) The MES is an experimental model for generalized tonic-clonic seizures that identifies compounds that prevent seizure spread. The MES model is highly reproducible and has a consistent endpoint. An advantage of this model is that the behavioral and electrographic seizures are consistent with those observed in humans.
(§3) In the MES test, the animal receives an electrical stimulus, 0.2 seconds in duration, via corneal electrodes primed with an electrolyte solution containing an anesthetic agent. The 0.2 second stimulation is generated with 150 mA in rats and 50 mA in mice at 60 Hz. […] In rats, the compound is administered orally, while mice receive the agent via intraperitoneal injection. The test endpoint, electrogenic seizure, is manifested as hindlimb tonic extension.
A full dose-response curve was also generated in rats to determine the ED50 value (n=8 at each time point). […] The ED50 of 4,4′-thiodianiline was evaluated in both rats and mice.

[5] = tested on: MES-induced seizure; experiment: Maximal Electroshock Seizure (MES) test in mice, intraperitoneal administration; assay type: in vivo
From the text: as §1, §2, §3

[6] = tested on: 6 Hz seizures; experiment: 6 Hz kindling model; assay type: in vivo, mice
Description: The 6 Hz kindling model is another experimental seizure model that effectively detects compounds with anti-seizure activity. This screen is used to evaluate the ability of a compound to prevent the acquisition of focal seizures; in particular, the capacity of a compound to prevent the development of seizures induced by a low-frequency (6 Hz), long duration (three seconds) stimulus in electrode […] is evaluated. Several of the most promising compounds were evaluated in this screen to further characterize their anti-seizure activity.
In the 6 Hz kindling test, mice are implanted with corneal electrodes. The test compound is administered (i.p.) to the animal at 0.25, 0.5, 1, 2, or 4 hours prior seizure induction. The seizure is initiated by delivering a current (32 mA at 6 Hz for three seconds) to the animal through the corneal electrodes. The resulting psychomotor seizure is usually characterized by a minimal clonic phase followed by stereotyped, automatistic behaviors. This response is analogous to the aura of human patients with partial seizures.

[7] = 30 mg/kg i.p., 0.5 h after administration
[8] = 100 mg/kg i.p., 0.5 h after administration
[9] = 100 mg/kg i.p., 4.0 h after administration

Question: Which results are given for `Nc1ccc(Oc2ccc(N)cc2)cc1` [4,4′-diaminodiphenyl ether]?
Answer: toxicity [1]: no significant toxicity; toxicity [2]: no significant toxicity; expression of fully kindled seizures [3]: had the capacity to block the expression of fully kindled seizures; Percentage of rats in which the test compound prevented MES-induced seizure ([4]; 0.25 h after administration): 100%; Percentage of rats in which the test compound prevented MES-induced seizure ([4]; 0.5 h after administration): 100%; Percentage of rats in which the test compound prevented MES-induced seizure ([4]; 1.0 h after administration): 75%; Percentage of rats in which the test compound prevented MES-induced seizure ([4]; 2.0 h after administration): 75%; Percentage of rats in which the test compound prevented MES-induced seizure ([4]; 4.0 h after administration): 100%; Time to Peak Effect ([4]; rat, oral administration, MES test): 6 h; ED50 required to inhibit MES-induced seizure ([4]; rat, oral administration, at the time of peak effect, n=8): 5.24 ± 4.67 mg/kg; Percentage of mice in which the test compound prevented MES-induced seizure [5, 7]: 0%; Percentage of mice in which the test compound prevented MES-induced seizure ([5]; 30 mg/kg i.p., 4.0 h after administration): 0%; Percentage of mice in which the test compound prevented MES-induced seizure [5, 8]: 100%; Percentage of mice in which the test compound prevented MES-induced seizure [5, 9]: 100%; Percentage of mice in which the test compound prevented MES-induced seizure ([5]; 300 mg/kg i.p., 0.5 h after administration): 100%; Percentage of mice in which the test compound prevented MES-induced seizure ([5]; 300 mg/kg i.p., 4.0 h after administration): 100%; Percentage of mice in which the test compound prevented seizure in the 6 Hz test ([6]; 30 mg/kg i.p., 0.25 h after administration): 0%; Percentage of mice in which the test compound prevented seizure in the 6 Hz test [6, 7]: 50%; Percentage of mice in which the test compound prevented seizure in the 6 Hz test ([6]; 30 mg/kg i.p., 1.0 h after administration): 25%; Percentage of mice in which the test compound prevented seizure in the 6 Hz test ([6]; 30 mg/kg i.p., 2.0 h after administration): 25%; Percentage of mice in which the test compound prevented seizure in the 6 Hz test ([6]; 100 mg/kg i.p., 0.25 h after administration): 100%; Percentage of mice in which the test compound prevented seizure in the 6 Hz test [6, 8]: 100%; Percentage of mice in which the test compound prevented seizure in the 6 Hz test ([6]; 100 mg/kg i.p., 1.0 h after administration): 100%; Percentage of mice in which the test compound prevented seizure in the 6 Hz test ([6]; 100 mg/kg i.p., 2.0 h after administration): 100%; Percentage of mice in which the test compound prevented seizure in the 6 Hz test [6, 9]: 0%
